From patent publication US5470852A, “Tetrahydroprotoberberine quaternary ammonium compounds useful in for treating arrhythmia” (priority 1991, dated 1995)
Where two headings read alike, the source gives them in different places.

Experiments:
[1] = system: left ventricular activity in rabbits; experiment: Monophasic action potential (MAP) recorded from left ventricle in rabbits; format: in vivo, rabbit
Description: The effectiveness of I13 in lengthening APD is confirmed by the influence on monophasic action potential (MAP) recorded from the left ventricular activity in rabbits.

[2] = system: Langendorff's perfused rat hearts; experiment: Lasting antiarrhythmic action after po administration, hearts removed and mounted on Langendorff's apparatus; format: in vivo; set-up: ke: unit not given beside the values
Method: 1, 3 and 6 hours after the administration of 100 mg/kg of I13 by p.o. to rats, the hearts were removed and mounted onto Langendorff's apparatus. […] (see FIG. 4)
FIG. 4. Influence of po I13 and mexiletine on the time course of reperfusion-induced arrhythmias in Langendorff's perfused rat hearts

anaesthetized rats [3] = experiment: animal or person; details: Rattus norvegicus
anaesthetized rats [4] = details: for Arrhythmic scores / Lethal risk / Antiarrhythmic effect: X ± SD; for Incidence of VF: n=10; for Death / animals with VF / animals without VF: of n=10

SMILES: COc1ccc2c(c1OC)C[N+]1(Cc3ccc(Cl)cc3)CCc3cc4c(cc3C1C2)OCO4 (stereo not shown) [Compound I13, 7-(4-chlorobenzyl)-5,8,13,13a-tetrahydroberberine chloride]
- lengthening of APD (MAP) [1]: confirmed
- ke ([2]; 30 mg/kg po at 1 hr before experiment (FIG. 4)): 0.144
- ke ([2]; 100 mg/kg po at 1 hr before experiment (FIG. 4)): 0.556
- ke ([2]; 100 mg/kg po at 3 hr before experiment (FIG. 4)): 0.056
- ke ([2]; 100 mg/kg po at 6 hr before experiment (FIG. 4)): 0.037
- antiarrhythmic effects after washing isolated hearts ([2]; 1, 3 and 6 hours after p.o. 100 mg/kg, 30 min washing): persisted even after 30 minutes of washing
- ED50 (anaesthetized rats [3]; iv): 0.16 mg/kg
- ED50 (anaesthetized rats [3]; iv, read-out: ED50 against VF): 0.16 mg/kg
- ED50 (anaesthetized rats [3]; iv, read-out: ED50 against arrhythmias): 0.22 mg/kg
- ED50 (anaesthetized rats [3]; po): 16.5 mg/kg
- ED50 (anaesthetized rats [3]; po, read-out: ED50 against VF): 20 mg/kg
- ED50 (anaesthetized rats [3]; po, read-out: ED50 against arrhythmias): 16.5 mg/kg
- anti-arrhythmic activity relative to lidocaine (anaesthetized rats [4]; i.v.): 10 times
- inhibition of arrhythmias and VF induced by left coronary artery ligation (anaesthetized rats [4]; i.v. or p.o.): significantly inhibited
- Arrhythmic scores (anaesthetized rats [4]; iv 0.1 mg/kg): 2.4 ± 2.2
- Lethal risk (anaesthetized rats [4]; iv 0.1 mg/kg): 75 ± 30
- Antiarrhythmic effect (anaesthetized rats [4]; iv 0.1 mg/kg, coronary occlusion 5 min): 0.25 ± 0.26
- Antiarrhythmic effect (anaesthetized rats [4]; iv 0.1 mg/kg, coronary occlusion 10 min): 1.7 ± 2.1
- Incidence of VF (anaesthetized rats [4]; iv 0.1 mg/kg): 30%
- Death (anaesthetized rats [4]; iv 0.1 mg/kg): 3
- animals with VF (anaesthetized rats [4]; iv 0.1 mg/kg): 3
- animals without VF (anaesthetized rats [4]; iv 0.1 mg/kg): 4
- Antiarrhythmic effect (anaesthetized rats [4]; iv 0.1 mg/kg, reperfusion 0.17 min): 2.2 ± 2.5
- Antiarrhythmic effect (anaesthetized rats [4]; iv 0.1 mg/kg, reperfusion 0.33 min): 2.1 ± 2.1
- Antiarrhythmic effect (anaesthetized rats [4]; iv 0.1 mg/kg, reperfusion 0.5 min): 2.4 ± 2.2
- Antiarrhythmic effect (anaesthetized rats [4]; iv 0.1 mg/kg, reperfusion 1 min): 2.3 ± 2.6
- Antiarrhythmic effect (anaesthetized rats [4]; iv 0.1 mg/kg, reperfusion 2 min): 1.6 ± 2.1
- Antiarrhythmic effect (anaesthetized rats [4]; iv 0.1 mg/kg, reperfusion 3 min): 1.6 ± 2.1
- Antiarrhythmic effect (anaesthetized rats [4]; iv 0.1 mg/kg, reperfusion 5 min): 1.6 ± 2.1
- Antiarrhythmic effect (anaesthetized rats [4]; iv 0.1 mg/kg, reperfusion 6 min): 2.4 ± 3.4
- Antiarrhythmic effect (anaesthetized rats [4]; iv 0.1 mg/kg, reperfusion 7 min): 0.20 ± 0.26
- Antiarrhythmic effect (anaesthetized rats [4]; iv 0.1 mg/kg, reperfusion 10 min): 0.42 ± 0.19
- Antiarrhythmic effect (anaesthetized rats [4]; iv 0.1 mg/kg, reperfusion 15 min): 0.42 ± 0.19
- Antiarrhythmic effect (anaesthetized rats [4]; iv 0.1 mg/kg, reperfusion 25 min): 0.43 ± 0.19
- Arrhythmic scores (anaesthetized rats [4]; iv 0.3 mg/kg): 1.2 ± 1.7
- Lethal risk (anaesthetized rats [4]; iv 0.3 mg/kg): 57 ± 26
- Antiarrhythmic effect (anaesthetized rats [4]; iv 0.3 mg/kg, coronary occlusion 5 min): 0.6 ± 1.3
- Antiarrhythmic effect (anaesthetized rats [4]; iv 0.3 mg/kg, coronary occlusion 10 min): 0.9 ± 1.9
- Incidence of VF (anaesthetized rats [4]; iv 0.3 mg/kg): 20%
- Death (anaesthetized rats [4]; iv 0.3 mg/kg): 1
- animals with VF (anaesthetized rats [4]; iv 0.3 mg/kg): 2
- animals without VF (anaesthetized rats [4]; iv 0.3 mg/kg): 7
- Antiarrhythmic effect (anaesthetized rats [4]; iv 0.3 mg/kg, reperfusion 0.17 min): 0.9 ± 1.3
- Antiarrhythmic effect (anaesthetized rats [4]; iv 0.3 mg/kg, reperfusion 0.33 min): 1.3 ± 2.0
- Antiarrhythmic effect (anaesthetized rats [4]; iv 0.3 mg/kg, reperfusion 0.5 min): 1.2 ± 1.7
- Antiarrhythmic effect (anaesthetized rats [4]; iv 0.3 mg/kg, reperfusion 1 min): 0.8 ± 1.8
- Antiarrhythmic effect (anaesthetized rats [4]; iv 0.3 mg/kg, reperfusion 2 min): 0.8 ± 1.8
- Antiarrhythmic effect (anaesthetized rats [4]; iv 0.3 mg/kg, reperfusion 3 min): 0.22 ± 0.26
- Antiarrhythmic effect (anaesthetized rats [4]; iv 0.3 mg/kg, reperfusion 5 min): 0.6 ± 1.2
- Antiarrhythmic effect (anaesthetized rats [4]; iv 0.3 mg/kg, reperfusion 6 min): 0.8 ± 1.8
- Antiarrhythmic effect (anaesthetized rats [4]; iv 0.3 mg/kg, reperfusion 7 min): 0.8 ± 1.8
- Antiarrhythmic effect (anaesthetized rats [4]; iv 0.3 mg/kg, reperfusion 10 min): 0.8 ± 1.8
- Antiarrhythmic effect (anaesthetized rats [4]; iv 0.3 mg/kg, reperfusion 15 min): 1.0 ± 2.2
- Antiarrhythmic effect (anaesthetized rats [4]; iv 0.3 mg/kg, reperfusion 25 min): 0.2 ± 0.4
- Arrhythmic scores (anaesthetized rats [4]; iv 1.0 mg/kg): 1.3 ± 1.7
- Lethal risk (anaesthetized rats [4]; iv 1.0 mg/kg): 41 ± 0
- Antiarrhythmic effect (anaesthetized rats [4]; iv 1.0 mg/kg, coronary occlusion 5 min): 0.4 ± 0.2
- Antiarrhythmic effect (anaesthetized rats [4]; iv 1.0 mg/kg, coronary occlusion 10 min): 0.4 ± 0.2
- Incidence of VF (anaesthetized rats [4]; iv 1.0 mg/kg): 0%
- Death (anaesthetized rats [4]; iv 1.0 mg/kg): 0
- animals with VF (anaesthetized rats [4]; iv 1.0 mg/kg): 0
- animals without VF (anaesthetized rats [4]; iv 1.0 mg/kg): 10
- Antiarrhythmic effect (anaesthetized rats [4]; iv 1.0 mg/kg, reperfusion 0.17 min): 1.4 ± 1.4
- Antiarrhythmic effect (anaesthetized rats [4]; iv 1.0 mg/kg, reperfusion 0.33 min): 3.2 ± 2.0
- Antiarrhythmic effect (anaesthetized rats [4]; iv 1.0 mg/kg, reperfusion 0.5 min): 1.6 ± 1.6
- Antiarrhythmic effect (anaesthetized rats [4]; iv 1.0 mg/kg, reperfusion 2 min): 0.20 ± 0.26
- Antiarrhythmic effect (anaesthetized rats [4]; iv 1.0 mg/kg, reperfusion 3 min): 0.20 ± 0.26
- Antiarrhythmic effect (anaesthetized rats [4]; iv 1.0 mg/kg, reperfusion 5 min): 0.20 ± 0.26
- Antiarrhythmic effect (anaesthetized rats [4]; iv 1.0 mg/kg, reperfusion 6 min): 0.20 ± 0.26
- Antiarrhythmic effect (anaesthetized rats [4]; iv 1.0 mg/kg, reperfusion 7 min): 0.20 ± 0.26
- Antiarrhythmic effect (anaesthetized rats [4]; iv 1.0 mg/kg, reperfusion 10 min): 0.20 ± 0.26
- Antiarrhythmic effect (anaesthetized rats [4]; iv 1.0 mg/kg, reperfusion 15 min): 0.10 ± 0.21
- Antiarrhythmic effect (anaesthetized rats [4]; iv 1.0 mg/kg, reperfusion 25 min): 0.10 ± 0.21
